This assay deals with Recombinant human BACE-1 (Homo sapiens (Human), UniProt P56817). As to the kind of experiment: Assay of β-secretase-inhibiting activity. The assay is classed as biochemical. Conditions: substrate peptide 18 nM, BACE-1 7.4 nM, sodium acetate buffer pH 5.0, 30° C. for 3 hours.
Recombinant human BACE-1, sequence (P56817 46-501): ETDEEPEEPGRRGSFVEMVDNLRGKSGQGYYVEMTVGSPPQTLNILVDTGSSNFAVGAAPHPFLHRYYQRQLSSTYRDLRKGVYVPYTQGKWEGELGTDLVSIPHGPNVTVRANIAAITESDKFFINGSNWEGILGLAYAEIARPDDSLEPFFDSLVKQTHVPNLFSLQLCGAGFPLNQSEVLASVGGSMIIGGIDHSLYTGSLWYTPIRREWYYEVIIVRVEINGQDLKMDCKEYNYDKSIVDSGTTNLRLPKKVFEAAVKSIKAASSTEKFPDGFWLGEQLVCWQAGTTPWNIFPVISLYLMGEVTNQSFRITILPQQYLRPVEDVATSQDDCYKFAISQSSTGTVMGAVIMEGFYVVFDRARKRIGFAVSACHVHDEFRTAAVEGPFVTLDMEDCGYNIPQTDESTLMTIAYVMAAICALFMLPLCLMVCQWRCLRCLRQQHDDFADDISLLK

`CC1(C)C[C@@](C)(c2cncc(NC(=O)c3ccc(Cl)cn3)c2)N=C(N)S1` [Compound 604]: the IC50 is no more than 1 µM.

A word on the IC50: it is the concentration at which inhibition is half-maximal.
